Results on one substance are retold here after patent US20210228653A1, “BACILLUS LICHENIFORMIS STRAIN WITH PROBIOTIC ACTIVITY” (EVONIK DEGUSSA GMBH, priority 2016, published 2021).

On the set-up of the experiment: species or system broiler chickens (Vencobb 400). The following applies: in vivo.

Where “and” joins values, the source holds several entries; their conditions need not be identical. Equal entries are not always repeated.

Consider “Bacitracin Methylene Disalicyclate [BMD]”, for which the “FCR (feed conversion ratio, feed to gain)” value is 1.42 g/g and 1.74 g/g; the “FCR compared to the control (in words)” value is “reduced”; the “body weight compared to the control (in words)” value is on record as “improved the body weight”.
